The values that follow come from patent publication US20260108484A1, “TREATMENT OF NEUROPATHIC PAIN IN CANINES” ([…] COMPANY, priority 2022, published 2026).

The test system of assay [1] is dogs with CLM/SM (neuropathic pain). Description: Pilot study and validation of the Questionnaire (CHASE score) in CLM/SM dogs. It counts as in vivo, dog. The procedure:
Please think about how your dog has behaved over the past week and use the scale to tell us how well the phrases describe your dog or what he/she is doing.
Summary values for untransformed and unweighted scores across the five final questions are presented below.
Intervention by a board-certified neurologist and prescription of pregabalin at 5-10 mg/kg twice daily relieved clinical signs and reduced CHASE scores to within the normal range, indicating responsiveness of the questionnaire to standard-of-care medical treatment. […] Using the Questionnaire to solicit owner feedback on disease severity and its impacts on affect and quality of life in this manner, owners and the veterinary neurologist concurred on treatment effects in this 100% of cases. This is to be expected given the potency of pregabalin in the treatment of neuropathic pain; however, no owner assessment tool has ever been reported to detect said effects so sensitively. For example, in a randomized controlled study by Thofner et al. (2020), even the very high dose range of 13 to 19 mg/kg pregabalin yielded concurrence between veterinarian and owner in only 52% of assessments of dogs with CLM/SM.

Assay [2] has as its system CKCS symptomatic for CLM/SM. To be noted: cited from earlier work.
The next assay concerns dogs with CLM/SM. To be noted: affected dogs, placebo-controlled treatment trial; cited from earlier work.
Assay [3] has as its system voltage-gated calcium channel α2δ subunits. To be noted: cited from earlier work.

Each structure is given as a SMILES string. A value given as a limit tells only on which side of the number the result lay.

For `CC(C)C[C@H](CN)CC(=O)O` [pregabalin], in assay [1] (8 treated dogs, pregabalin 5-10 mg/kg twice daily), the “treated dogs exhibiting improvements of at least 5 points” value worked out at 100%. The “Questionnaire (CHASE) score, Mean” value in assay [1] (Treated CLM/SM dogs, n=8, untransformed and unweighted scores across the five final questions, pregabalin 5-10 mg/kg twice daily) is 4.4. The “improvements in symptom severity on the Questionnaire” value in assay [1] (each of the 8 treated dogs, pregabalin 5-10 mg/kg twice daily) is “at least 5 points”. The effect size is listed as at least 1.04 in assay [1] (equivalent to improvement of at least 5 points on the Questionnaire) and 0.45 in assay [2] (CKCS symptomatic for CLM/SM, crossover placebo-controlled). Further, the “numerical rating scale (NRS) mean score during treatment” value in assay [2] (liquid formulation of pregabalin, placebo phase 4.24) is recorded as 3.17 units. Also, the phantom scratching result with dogs with CLM/SM is given as “effectively reduce phantom scratching”. For the same molecule, the “potency and binding affinity compared with gabapentin” value in assay [3] was “better potency and binding affinity than gabapentin”.
